# Measurements from the supplement of paper PMC10307832.
# Key:
# Experiment in all cases: relative viability (nuclei count vs DMSO), 5 days (fraction); higher = more cells survive
# GSK-J4 = compound: CCOC(=O)CCNc1cc(N2CCc3ccccc3CC2)nc(-c2ccccn2)n1 [GSK-J4]
# Procedure, shortened: (§1)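 Cells of lung cancer lines were placed in 1536-well plates and kept overnight at 37 °C. Pinning then delivered five library-drug doses (not always all listed), spaced by √10, onto plates anchored with vehicle, and the cells were left 5 days without changing medium. One step fixed, permeabilised and stained them with Hoechst, and MetaXpress counted nuclei in 4× images. Viability, as a median over plates, is treated-well nuclei divided by vehicle-well nuclei, with acceptance only at control CV below 25% and at least one doubling.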
# AZ3146 = compound: CN1CCC(CC1)OC2=CC(=C(C=C2)NC3=NC=C4C(=N3)N(C(=O)N4C)C5CCCC5)OC [AZ3146]
# Procedure, shortened: as §1
# GSK-J4 + Trametinib = compound: CCOC(=O)CCNc1cc(N2CCc3ccccc3CC2)nc(-c2ccccn2)n1 [GSK-J4] + CC(=O)Nc1cccc(-n2c(=O)n(C3CC3)c(=O)c3c(Nc4ccc(I)cc4F)n(C)c(=O)c(C)c32)c1 [Trametinib] (partner 0.02 µM)
# Procedure, shortened: (§2)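 After 5 days of treatment, lung cancer cells in 1536-well plates were fixed and stained in a single step (final 0.05% Triton X-100, 1% formaldehyde, 1 ug/ml Hoechst) and their nuclei counted on 4× images. Treatment had been applied by pin tool the day after seeding as one drug alone or as a fixed anchor-drug dose with five library-drug doses (not always all listed) in √10 steps. Relative viability is the nuclei count of treated wells divided by that of vehicle wells, and values are medians of duplicate plates.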
# AZ3146 + Navitoclax = compound: CN1CCC(CC1)OC2=CC(=C(C=C2)NC3=NC=C4C(=N3)N(C(=O)N4C)C5CCCC5)OC [AZ3146] + CC1(C)CCC(c2ccc(Cl)cc2)=C(CN2CCN(c3ccc(C(=O)NS(=O)(=O)c4ccc(N[C@H](CCN5CCOCC5)CSc5ccccc5)c(S(=O)(=O)C(F)(F)F)c4)cc3)CC2)C1 [Navitoclax] (partner 0.5 µM)
# Procedure, shortened: as §2
Cell Line,relative viability (GSK-J4; 0.5 µM),relative viability (GSK-J4; 1.581 µM),relative viability (GSK-J4; 5 µM),relative viability (GSK-J4; 15.81 µM),relative viability (GSK-J4; 50 µM),relative viability (AZ3146; 0.08 µM),relative viability (AZ3146; 0.253 µM),relative viability (AZ3146; 0.8 µM),relative viability (AZ3146; 2.53 µM),relative viability (AZ3146; 8 µM),relative viability (GSK-J4 + Trametinib; first compound 0.5 µM),relative viability (GSK-J4 + Trametinib; first compound 1.581 µM),relative viability (GSK-J4 + Trametinib; first compound 5 µM),relative viability (GSK-J4 + Trametinib; first compound 15.81 µM),relative viability (GSK-J4 + Trametinib; first compound 50 µM),relative viability (AZ3146 + Navitoclax; first compound 0.08 µM),relative viability (AZ3146 + Navitoclax; first compound 0.253 µM),relative viability (AZ3146 + Navitoclax; first compound 0.8 µM),relative viability (AZ3146 + Navitoclax; first compound 2.53 µM),relative viability (AZ3146 + Navitoclax; first compound 8 µM)
NCI-H23,0.956,0.761,0.814,0.803,0.742,1.13,1.06,0.959,1.05,0.758,0.354,0.367,0.393,0.285,0.34,0.751,0.687,0.786,0.86,0.993
NCI-H441,0.967,0.85,0.827,0.92,0.796,0.939,1.18,1.01,1.05,1.03,0.498,0.386,0.492,0.383,0.352,0.416,0.576,0.53,0.547,0.683
NCI-H2009,0.951,0.89,0.733,0.966,0.545,0.928,0.997,1.03,1.02,0.713,0.262,0.266,0.195,0.252,0.199,1.02,1.27,1.2,1.25,1.03
NCI-H2170,1,0.89,0.893,0.916,0.969,0.959,0.991,0.994,1.01,0.96,0.852,0.882,0.958,0.872,0.829,0.705,0.528,0.632,0.576,0.645
HCC-78,1.06,0.946,1.14,0.728,0.92,–,1.01,0.864,0.989,0.956,0.765,0.706,1.15,0.559,1.02,–,0.795,0.718,0.899,0.736
NCI-H3122,0.941,0.904,0.955,1.05,1.02,0.979,1,1.02,0.984,0.991,0.223,0.266,0.222,0.273,0.193,1.05,0.985,1.03,1,1.03
NCI-H2085,1.02,0.953,0.884,0.924,0.955,1,0.987,0.972,0.97,0.992,0.482,0.663,0.586,0.517,0.57,1.03,1.14,1.06,1.08,1.03
HCC-366,1.03,0.851,–,0.988,0.989,0.9,0.939,1.02,0.973,0.988,0.354,0.319,–,0.234,0.21,1.01,0.958,1.06,1.16,1.14
HCC-827,1.01,0.902,0.839,1,1.02,1.04,0.998,0.987,0.939,1.04,0.566,0.58,0.72,0.448,0.513,0.964,1.02,0.997,1.02,0.998
HOP-62,1,0.835,1.04,0.987,0.749,0.958,0.986,0.98,1.03,0.956,0.39,0.309,0.334,0.337,0.301,1.08,1.05,0.938,1.13,0.913
NCI-H1437,1.01,0.909,0.923,1.01,0.609,0.887,0.936,0.953,1.03,0.983,0.478,0.444,0.553,0.491,0.29,1.02,1.09,1.07,1.13,1.14
PC-14,1.02,0.916,0.769,0.985,1.01,0.958,0.967,1.02,1.04,0.784,0.68,0.663,0.503,0.738,0.691,0.959,1.02,1.12,1.11,0.898
NCI-H2228,0.904,1.04,1.15,0.997,0.948,1.04,0.973,1.1,0.995,0.933,0.523,0.526,0.48,0.415,0.334,0.901,0.8,0.961,0.935,0.845
CAL-12T,0.94,0.838,1.05,0.93,0.834,1.03,0.978,1.07,1.09,0.776,0.337,0.314,0.424,0.288,0.254,1.21,1.28,1.24,1.32,1.17
LOU-NH91,1.12,1.03,0.724,0.868,0.952,1.01,0.935,0.957,0.986,0.96,0.816,0.427,0.638,0.718,0.803,0.685,0.609,0.76,0.697,0.7
EMC-BAC-2,0.971,0.909,0.647,0.882,0.955,0.772,0.76,1.07,1.1,0.907,0.901,0.819,–,0.777,0.831,1.07,1.23,1.25,1.21,1.26

Cell Line,relative viability (GSK-J4; 0.5 µM),relative viability (GSK-J4; 1.581 µM),relative viability (GSK-J4; 5 µM),relative viability (GSK-J4; 15.81 µM),relative viability (GSK-J4; 50 µM),relative viability (AZ3146; 0.08 µM),relative viability (AZ3146; 0.253 µM),relative viability (AZ3146; 0.8 µM),relative viability (AZ3146; 2.53 µM),relative viability (AZ3146; 8 µM),relative viability (GSK-J4 + Trametinib; first compound 0.5 µM),relative viability (GSK-J4 + Trametinib; first compound 1.581 µM),relative viability (GSK-J4 + Trametinib; first compound 5 µM),relative viability (GSK-J4 + Trametinib; first compound 15.81 µM),relative viability (GSK-J4 + Trametinib; first compound 50 µM),relative viability (AZ3146 + Navitoclax; first compound 0.08 µM),relative viability (AZ3146 + Navitoclax; first compound 0.253 µM),relative viability (AZ3146 + Navitoclax; first compound 0.8 µM),relative viability (AZ3146 + Navitoclax; first compound 2.53 µM),relative viability (AZ3146 + Navitoclax; first compound 8 µM)
NCI-H1355,0.979,0.916,0.821,0.902,0.943,0.941,0.971,1,1.07,0.961,0.371,0.4,0.486,0.396,0.327,0.974,0.872,1.04,0.922,1.01
NCI-H727,0.863,0.754,1.11,0.85,0.468,0.838,1.08,0.838,1.21,0.74,0.405,0.393,0.378,0.385,0.331,0.501,0.476,0.431,0.436,0.413
NCI-H1666,0.977,0.79,1.19,1,0.804,1.09,0.953,1.02,1.05,1.05,0.843,0.695,0.923,0.704,0.77,0.859,0.805,0.951,1.05,0.81
NCI-H2126,0.973,0.944,1.02,0.906,0.83,0.972,1,0.99,1.06,0.919,0.567,0.575,0.566,0.503,0.503,0.8,0.843,0.896,0.861,0.849
NCI-H1793,1.06,0.786,0.727,0.48,0.443,0.902,0.805,0.812,1.07,0.691,0.432,0.375,0.336,0.28,0.228,0.437,0.311,0.46,0.492,0.436
LCLC-97TM1,0.865,0.753,1.05,0.608,0.755,0.836,1.01,0.932,1.1,0.751,0.182,0.155,0.168,0.128,0.156,–,–,0.541,0.361,0.544
COR-L23,0.965,0.894,–,1,0.852,0.928,1.03,1.03,0.974,0.977,0.461,0.576,–,0.544,0.429,1.05,1.08,0.984,1.03,0.923
HARA,1.06,0.959,–,0.881,1.05,0.808,0.902,1.01,1.07,0.866,0.6,0.799,–,0.516,0.471,1.13,1.08,1.13,1.13,1.11
NCI-H2023,0.942,0.853,1.07,0.906,0.856,0.935,0.912,0.969,0.871,0.296,0.559,0.591,0.59,0.475,0.431,0.887,1.08,1.06,1.04,0.652
NCI-H1792,0.932,0.606,0.925,0.697,0.832,0.759,0.776,0.93,0.841,0.905,0.523,0.44,0.468,0.39,0.38,0.492,0.786,0.582,0.64,0.654
LC-2-ad,0.988,0.807,0.787,0.933,0.903,0.895,1.04,0.979,0.967,0.91,0.847,0.76,0.835,0.908,0.886,0.425,0.385,0.649,0.519,0.685
LXF-289,1.02,0.903,0.967,1.02,0.983,0.944,0.991,0.989,1.02,0.982,0.696,0.592,0.688,0.654,0.584,0.94,1.03,0.883,0.943,0.926
NCI-H2347,0.984,0.879,0.886,0.952,0.849,0.997,1.03,0.913,1.1,1.07,0.25,0.273,0.275,0.32,0.285,0.76,0.763,0.594,0.88,0.833
RERF-LC-KJ,0.887,0.853,0.943,0.908,0.826,0.944,1.01,0.974,1.05,0.716,0.85,0.845,0.931,0.708,0.66,0.872,0.878,1.04,0.787,0.839
NCI-H1650,1.11,0.791,0.889,0.808,0.682,0.966,0.873,0.812,0.864,0.652,0.678,0.56,0.608,0.646,0.419,1.21,1.34,1.26,1.38,1.19
